Experimental data as given in US10562887B2, “Triazolones and tetrazolones as inhibitors of ROCK” (BRISTOL-MYERS SQUIBB COMPANY, priority 2016, dated 2020).

target: ROCK2 (Homo sapiens (Human), UniProt O75116); experiment: ROCK2 assay (peptide phosphorylation, LABCHIP 3000 Reader); assay type: biochemical; conditions: 5 μM ATP, 1.5 μM peptide substrate
Description: The effectiveness of compounds of the present invention as ROCK inhibitors can be determined in a 30 μL, assay containing 20 mM HEPES, pH 7.5, 20 mM MgCl2, 0.015% Brij-35, 4 mM DTT, 5 μM ATP and 1.5 μM peptide substrate (FITC-AHA-AKRRRLSSLRA-OH). Compounds were dissolved in DMSO so that the final concentration of DMSO was <2%, and the reaction was initiated with Rho kinase variants. After incubation, the reaction was terminated by the addition of EDTA and the phosphorylated and non-phosphorylated peptides separated using a LABCHIP® 3000 Reader (Caliper Life Sciences). […] Compounds were tested in dose-response format, and the inhibition of kinase activity was calculated at each concentration of compound. The inhibition data were fit using a curve-fitting program to determine the IC50; i.e., the concentration of compound required to inhibit 50% of kinase activity.
Representative Examples were tested in the ROCK2 assay described above and found having ROCK2 inhibitory activity.

Sequence of ROCK2 (O75116 whole entry, species assumed): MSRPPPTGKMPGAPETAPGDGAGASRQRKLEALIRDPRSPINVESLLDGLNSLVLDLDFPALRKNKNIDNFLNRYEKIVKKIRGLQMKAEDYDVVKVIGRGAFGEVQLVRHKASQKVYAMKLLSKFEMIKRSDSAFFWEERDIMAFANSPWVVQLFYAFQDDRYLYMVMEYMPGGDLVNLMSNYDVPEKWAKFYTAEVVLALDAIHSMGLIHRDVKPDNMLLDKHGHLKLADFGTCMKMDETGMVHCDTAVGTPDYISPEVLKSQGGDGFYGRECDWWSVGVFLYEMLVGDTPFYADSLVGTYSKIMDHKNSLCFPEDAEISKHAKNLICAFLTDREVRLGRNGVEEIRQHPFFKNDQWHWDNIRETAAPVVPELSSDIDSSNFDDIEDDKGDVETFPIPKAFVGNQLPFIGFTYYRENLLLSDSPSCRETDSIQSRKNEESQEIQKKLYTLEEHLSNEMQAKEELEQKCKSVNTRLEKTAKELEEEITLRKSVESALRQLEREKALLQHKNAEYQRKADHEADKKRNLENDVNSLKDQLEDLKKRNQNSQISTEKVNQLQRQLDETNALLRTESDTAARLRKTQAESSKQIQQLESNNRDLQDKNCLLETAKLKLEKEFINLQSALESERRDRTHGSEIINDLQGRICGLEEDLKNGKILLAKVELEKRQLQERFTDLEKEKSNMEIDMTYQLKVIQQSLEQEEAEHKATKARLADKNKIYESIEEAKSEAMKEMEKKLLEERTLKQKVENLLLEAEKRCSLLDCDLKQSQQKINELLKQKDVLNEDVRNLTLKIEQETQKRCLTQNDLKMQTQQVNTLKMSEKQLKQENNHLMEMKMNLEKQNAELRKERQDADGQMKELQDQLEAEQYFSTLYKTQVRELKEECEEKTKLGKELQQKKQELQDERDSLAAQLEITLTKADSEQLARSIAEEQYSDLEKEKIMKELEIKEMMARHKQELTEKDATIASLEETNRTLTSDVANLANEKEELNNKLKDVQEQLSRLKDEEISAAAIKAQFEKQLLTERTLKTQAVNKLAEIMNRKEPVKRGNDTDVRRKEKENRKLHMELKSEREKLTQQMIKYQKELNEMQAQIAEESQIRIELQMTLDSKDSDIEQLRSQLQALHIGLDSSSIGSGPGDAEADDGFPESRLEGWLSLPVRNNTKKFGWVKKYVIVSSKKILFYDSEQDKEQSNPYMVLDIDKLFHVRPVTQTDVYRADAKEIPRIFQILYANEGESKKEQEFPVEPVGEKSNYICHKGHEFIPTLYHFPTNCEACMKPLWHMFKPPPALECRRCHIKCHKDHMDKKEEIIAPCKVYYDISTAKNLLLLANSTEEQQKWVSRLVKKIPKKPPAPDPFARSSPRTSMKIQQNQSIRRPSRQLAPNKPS

Row | Structure (SMILES) | IC50
1 | COc1cccc(Cn2nc(C)n(-c3ccc(-c4cn[nH]c4)cc3OC)c2=O)c1 [Example 64, 4-(2-methoxy-4-(1H-pyrazol-4-yl)phenyl)-1-(3-methoxybenzyl)-3-methyl-1H-1,2,4-triazol-5(4H)-one] | 250 to 2000 nM
2 | COc1cc(-n2c(C)nn(Cc3cccc(F)c3)c2=O)ccc1-c1cn[nH]c1 [Example 65, 1-(3-fluorobenzyl)-4-(3-methoxy-4-(1H-pyrazol-4-yl)phenyl)-3-methyl-1H-1,2,4-triazol-5(4H)-one] | 250 to 2000 nM
3 | COc1cc(-n2c(C)nn(CCc3ccccc3)c2=O)ccc1-c1cn[nH]c1 [Example 66, 4-(3-methoxy-4-(1H-pyrazol-4-yl)phenyl)-3-methyl-1-phenethyl-1H-1,2,4-triazol-5(4H)-one] | 50 to 250 nM
4 | Cc1nn(CCc2ccccc2)c(=O)n1-c1ccc(-c2cn[nH]c2)cc1 [Example 67, 4-(4-(1H-pyrazol-4-yl)phenyl)-3-methyl-1-phenethyl-1H-1,2,4-triazol-5(4H)-one] | 250 to 2000 nM
5 | COc1cc(-n2c(C)nn(Cc3cc(F)ccc3F)c2=O)ccc1-c1cn[nH]c1 [Example 68, 1-(2,5-difluorobenzyl)-4-(3-methoxy-4-(1H-pyrazol-4-yl)phenyl)-3-methyl-1H-1,2,4-triazol-5(4H)-one] | 250 to 2000 nM
6 | COc1cccc(Cn2nc(C)n(-c3ccc(-c4cn[nH]c4)cc3)c2=O)c1 [Example 69, 4-(4-(1H-pyrazol-4-yl)phenyl)-1-(3-methoxybenzyl)-3-methyl-1H-1,2,4-triazol-5(4H)-one] | 250 to 2000 nM
7 | Cc1nn(Cc2cccc(F)c2)c(=O)n1-c1ccc(-c2cn[nH]c2)cc1 [Example 70, 4-(4-(1H-pyrazol-4-yl)phenyl)-1-(3-fluorobenzyl)-3-methyl-1H-1,2,4-triazol-5(4H)-one] | 250 to 2000 nM
8 | Cc1nn(Cc2cc(F)ccc2F)c(=O)n1-c1ccc(-c2cn[nH]c2)cc1 [Example 71, 4-(4-(1H-pyrazol-4-yl)phenyl)-1-(2,5-difluorobenzyl)-3-methyl-1H-1,2,4-triazol-5(4H)-one] | 250 to 2000 nM
9 | COc1cc(F)cc(Cn2nc(C)n(-c3ccc(-c4cn[nH]c4)cc3)c2=O)c1 [Example 72, 4-(4-(1H-pyrazol-4-yl)phenyl)-1-(3-fluoro-5-methoxybenzyl)-3-methyl-1H-1,2,4-triazol-5(4H)-one] | 250 to 2000 nM
10 | Cc1nn(C(C)c2ccccc2)c(=O)n1-c1ccc(-c2cn[nH]c2)cc1 (stereo not shown) [Example 73, 4-(4-(1H-pyrazol-4-yl)phenyl)-3-methyl-1-(1-phenylethyl)-1H-1,2,4-triazol-5(4H)-one] | 250 to 2000 nM
11 | COc1cc(-c2cn[nH]c2)ccc1-n1c(C)nn(Cc2cccc(F)c2)c1=O [Example 74, 1-(3-fluorobenzyl)-4-(2-methoxy-4-(1H-pyrazol-4-yl)phenyl)-3-methyl-1H-1,2,4-triazol-5(4H)-one] | 250 to 2000 nM
12 | COc1cc(-c2cn[nH]c2)ccc1-n1c(C)nn(C(C)c2ccccc2)c1=O (stereo not shown) [Example 75, 4-(2-methoxy-4-(1H-pyrazol-4-yl)phenyl)-3-methyl-1-(1-phenylethyl)-1H-1,2,4-triazol-5(4H)-one] | 250 to 2000 nM
13 | COc1cc(F)cc(Cn2nc(C)n(-c3ccc(-c4cn[nH]c4)cc3OC)c2=O)c1 [Example 76, 1-(3-fluoro-5-methoxybenzyl)-4-(2-methoxy-4-(1H-pyrazol-4-yl)phenyl)-3-methyl-1H-1,2,4-triazol-5(4H)-one] | 250 to 2000 nM
14 | COc1cc(-c2cn[nH]c2)ccc1-n1c(C)nn(CCc2ccccc2)c1=O [Example 77, 4-(2-methoxy-4-(1H-pyrazol-4-yl)phenyl)-3-methyl-1-phenethyl-1H-1,2,4-triazol-5(4H)-one] | 250 to 2000 nM
15 | COc1cc(-c2cn[nH]c2)ccc1-n1c(C)nn(Cc2cc(F)ccc2F)c1=O [Example 78, 1-(2,5-difluorobenzyl)-4-(2-methoxy-4-(1H-pyrazol-4-yl)phenyl)-3-methyl-1H-1,2,4-triazol-5(4H)-one] | 50 to 250 nM
16 | Cc1nn(-c2ccc(-c3cn[nH]c3)cc2)c(=O)n1C(C)c1ccccc1 (stereo not shown) [Example 84, 1-(4-(1H-pyrazol-4-yl)phenyl)-3-methyl-4-(1-phenylethyl)-1H-1,2,4-triazol-5(4H)-one] | 50 to 250 nM
17 | Cc1nn(-c2ccc(-c3cn[nH]c3)cc2)c(=O)n1CCc1ccccc1 [Example 85, 1-(4-(1H-pyrazol-4-yl)phenyl)-3-methyl-4-phenethyl-1H-1,2,4-triazol-5(4H)-one] | 50 to 250 nM
18 | COc1cc(-n2nc(C)n(Cc3ccccc3F)c2=O)ccc1-c1cn[nH]c1 [Example 95, 4-(2-fluorobenzyl)-1-(3-methoxy-4-(1H-pyrazol-4-yl)phenyl)-3-methyl-1H-1,2,4-triazol-5(4H)-one] | 5 to 50 nM
19 | Cc1nn(-c2ccc(-c3cn[nH]c3)cc2)c(=O)n1Cc1cc(F)cc(F)c1 [Example 96, 1-(4-(1H-pyrazol-4-yl)phenyl)-4-(3,5-difluorobenzyl)-3-methyl-1H-1,2,4-triazol-5(4H)-one] | 5 to 50 nM
20 | COc1cc(-n2nc(C)n(Cc3cccc(C#N)c3)c2=O)ccc1-c1cn[nH]c1 [Example 97, 3-((1-(3-methoxy-4-(1H-pyrazol-4-yl)phenyl)-3-methyl-5-oxo-1H-1,2,4-triazol-4(5H)-yl)methyl)benzonitrile] | 50 to 250 nM
21 | COc1cc(-n2nc(C)n(Cc3c(F)cccc3F)c2=O)ccc1-c1cn[nH]c1 [Example 98, 4-(2,6-difluorobenzyl)-1-(3-methoxy-4-(1H-pyrazol-4-yl)phenyl)-3-methyl-1H-1,2,4-triazol-5(4H)-one] | 5 to 50 nM
22 | COc1cc(-n2nc(C)n(Cc3cc(F)cc(F)c3)c2=O)ccc1-c1cn[nH]c1 [Example 99, 4-(3,5-difluorobenzyl)-1-(3-methoxy-4-(1H-pyrazol-4-yl)phenyl)-3-methyl-1H-1,2,4-triazol-5(4H)-one] | 5 to 50 nM
23 | COc1cc(-n2nc(C)n(Cc3cccc(OC(F)F)c3)c2=O)ccc1-c1cn[nH]c1 [Example 100, 4-(3-(difluoromethoxy)benzyl)-1-(3-methoxy-4-(1H-pyrazol-4-yl)phenyl)-3-methyl-1H-1,2,4-triazol-5(4H)-one] | 5 to 50 nM

Other lines, results leading:

Row | IC50 | Structure (SMILES)
24 | 5 to 50 nM | Cc1nn(-c2ccc(-c3cn[nH]c3)cc2)c(=O)n1Cc1ccccc1 [Example 79, 1-(4-(1H-pyrazol-4-yl)phenyl)-4-benzyl-3-methyl-1H-1,2,4-triazol-5(4H)-one]
25 | < 5 nM | COc1cccc(Cn2c(C)nn(-c3ccc(-c4cn[nH]c4)cc3)c2=O)c1 [Example 80, 1-(4-(1H-pyrazol-4-yl)phenyl)-4-(3-methoxybenzyl)-3-methyl-1H-1,2,4-triazol-5(4H)-one]
26 | 5 to 50 nM | Cc1nn(-c2ccc(-c3cn[nH]c3)cc2)c(=O)n1Cc1cccc(F)c1 [Example 81, 1-(4-(1H-pyrazol-4-yl)phenyl)-4-(3-fluorobenzyl)-3-methyl-1H-1,2,4-triazol-5(4H)-one]
27 | 5 to 50 nM | Cc1nn(-c2ccc(-c3cn[nH]c3)cc2)c(=O)n1Cc1cc(F)ccc1F [Example 82, 1-(4-(1H-pyrazol-4-yl)phenyl)-4-(2,5-difluorobenzyl)-3-methyl-1H-1,2,4-triazol-5(4H)-one]
28 | < 5 nM | COc1cc(F)cc(Cn2c(C)nn(-c3ccc(-c4cn[nH]c4)cc3)c2=O)c1 [Example 83, 1-(4-(1H-pyrazol-4-yl)phenyl)-4-(3-fluoro-5-methoxybenzyl)-3-methyl-1H-1,2,4-triazol-5(4H)-one]
29 | 5 to 50 nM | Cc1nn(-c2ccc(-c3cn[nH]c3)cc2)c(=O)n1Cc1ccccc1Cl [Example 86, 1-(4-(1H-pyrazol-4-yl)phenyl)-4-(2-chlorobenzyl)-3-methyl-1H-1,2,4-triazol-5(4H)-one]
30 | 5 to 50 nM | Cc1nn(-c2ccc(-c3cn[nH]c3)cc2)c(=O)n1Cc1ccccc1F [Example 87, 2-(4-(1H-pyrazol-4-yl)phenyl)-4-(2-fluorobenzyl)-5-methyl-2,4-dihydro-3H-1,2,4-triazol-3-one]
31 | < 5 nM | COc1cc(-n2nc(C)n(Cc3ccccc3)c2=O)ccc1-c1cn[nH]c1 [Example 88, 4-benzyl-1-(3-methoxy-4-(1H-pyrazol-4-yl)phenyl)-3-methyl-1H-1,2,4-triazol-5(4H)-one]
32 | < 5 nM | COc1cccc(Cn2c(C)nn(-c3ccc(-c4cn[nH]c4)c(OC)c3)c2=O)c1 [Example 89, 1-(3-methoxy-4-(1H-pyrazol-4-yl)phenyl)-4-(3-methoxybenzyl)-3-methyl-1H-1,2,4-triazol-5(4H)-one]
33 | < 5 nM | COc1cc(-n2nc(C)n(Cc3cccc(F)c3)c2=O)ccc1-c1cn[nH]c1 [Example 90, 4-(3-fluorobenzyl)-1-(3-methoxy-4-(1H-pyrazol-4-yl)phenyl)-3-methyl-1H-1,2,4-triazol-5(4H)-one]
34 | 5 to 50 nM | COc1cc(-n2nc(C)n(Cc3cc(F)ccc3F)c2=O)ccc1-c1cn[nH]c1 [Example 91, 4-(2,5-difluorobenzyl)-1-(3-methoxy-4-(1H-pyrazol-4-yl)phenyl)-3-methyl-1H-1,2,4-triazol-5(4H)-one]
35 | < 5 nM | COc1cc(F)cc(Cn2c(C)nn(-c3ccc(-c4cn[nH]c4)c(OC)c3)c2=O)c1 [Example 92, 4-(3-fluoro-5-methoxybenzyl)-1-(3-methoxy-4-(1H-pyrazol-4-yl)phenyl)-3-methyl-1H-1,2,4-triazol-5(4H)-one]
36 | 5 to 50 nM | COc1cc(-n2nc(C)n(C(C)c3ccccc3)c2=O)ccc1-c1cn[nH]c1 (stereo not shown) [Example 93, 1-(3-methoxy-4-(1H-pyrazol-4-yl)phenyl)-3-methyl-4-(1-phenylethyl)-1H-1,2,4-triazol-5(4H)-one]
37 | 5 to 50 nM | COc1cc(-n2nc(C)n(CCc3ccccc3)c2=O)ccc1-c1cn[nH]c1 [Example 94, 1-(3-methoxy-4-(1H-pyrazol-4-yl)phenyl)-3-methyl-4-phenethyl-1H-1,2,4-triazol-5(4H)-one]
